Our source for the pest or weed control and melting point values is patent US20080194585A1, “Fungicidal Pyrazine Derivatives” (priority 2005, published 2008).

Like-named read-outs stand apart in the source and are kept apart here.

The test system of one data set is Septoria nodorum. The experiment in a line: Test H: wheat glum blotch, preventive spray on wheat seedlings. As to conditions: Parastagonospora nodorum, in Triticum aestivum, topical, 168 h.
The test system of a further data set is Rhizoctonia oryzae. As to the kind of experiment: Test G: turf brown patch, preventive spray on creeping bent grass seedlings. To be noted: Waitea circinata, in Agrostis stolonifera, topical, 144 h.
Data set [1] deals with Colletotrichum orbiculare. The experiment in a line: Test B: cucumber Colletotrichum anthracnose, preventive spray on cucumber seedlings. As to conditions: Colletotrichum orbiculare, in Cucumis sativus, 144 h.
For a further data set, the system named is Plasmopara viticola. The experiment in a line: Test D: grape downy mildew, spray after inoculation of grape seedlings. The class given is in vivo. As to conditions: Plasmopara viticola, 168 h, read-out: Test D disease control rating. From the text:
Upon removal, disease ratings were made. […] A dash (-) indicates no test results.

The next data set concerns Botrytis cinerea. The experiment in a line: Test E: tomato botrytis, preventive spray on tomato seedlings. As to conditions: Botrytis cinerea, in Solanum lycopersicum, topical, 72 h, read-out: Test E disease control rating.
The next data set concerns fusarium graminearium. As to the kind of experiment: Test I: wheat head scab, preventive spray on wheat seedlings. As to conditions: Fusarium, in Triticum aestivum, topical, 192 h.
Another data set has as its system Septoria tritici. The experiment in a line: Test J: wheat leaf blotch, preventive spray on wheat seedlings. To be noted: Zymoseptoria tritici, 528 h, read-out: Test J disease control rating. Format: in vivo. From the text: A dash (-) indicates no test results.
A further data set concerns Phytophthora infestans. The experiment in a line: whole plant or invertebrate. To be noted: Phytophthora infestans, in Solanum lycopersicum, topical, 144 h, read-out: Test F disease control rating. The class given is in vivo.
The next data set deals with Sclerotinia sclerotiorum. As to the kind of experiment: Test C: cucumber white mold, preventive spray on cucumber seedlings. To be noted: Sclerotinia sclerotiorum, in Cucumis sativus, 168 h.
Data set [2] relates to Erysiphe graminis f. sp. tritici. The experiment in a line: Test L: wheat powdery mildew, preventive spray on wheat seedlings. To be noted: Blumeria graminis, in Triticum aestivum, 168 h.
Data set [3] relates to Puccinia recondita f. sp. tritici. As to the kind of experiment: Test K: wheat leaf rust, preventive spray on wheat seedlings. As to conditions: Puccinia recondita, in Triticum aestivum, 192 h, read-out: Test K disease control rating.
For the next data set, the system named is Pythium aphanidermatum. As to the kind of experiment: Test A: bluegrass pythium blight, preventive spray on bluegrass seedlings. As to conditions: Pythium aphanidermatum, 120 h, read-out: Test A disease control rating.
[4] abbreviates: 40 ppm (marked *), 100 = 100% disease control, 0 = no control.

Description for Rhizoctonia oryzae: (the causal agent of turf brown patch) and incubated in a saturated atmosphere at 27° C. for 24 h, and then moved to a growth chamber at 27° C. for 5 days, after which disease ratings were made.
Description for Septoria nodorum: (the causal agent of wheat glum blotch) and incubated in a saturated atmosphere at 20° C. for 48 h, and then moved to a growth chamber at 22° C. for 5 days, after which disease ratings were made.
Description for fusarium graminearium: (the causal agent of wheat head scab) and incubated in a saturated atmosphere at 20° C. for 72 h, and then moved to a growth chamber at 22° C. for 5 days, after which disease ratings were made.

As usually defined, the melting point is the temperature of the solid-liquid transition. `CC[C@H](C)Cn1c(-c2c(F)cc(F)cc2F)c(Cl)nc(-n2cccn2)c1=O` [Compound 155, 5-Chloro-1-[(2S)-2-methylbutyl)-3-(1H-pyrazol-1-yl)-6-(2,4,6-trifluorophenyl)-2(1H)-pyrazinone] displayed a melting point of 112 to 113 °C. Further, the pest or weed control at 40 ppm in the data set on Septoria nodorum (read-out: Test H disease control rating, 40 ppm (*)) was 100%. Moreover, the pest or weed control at 40 ppm in the data set with Rhizoctonia oryzae (read-out: Test G disease control rating, 40 ppm (*)) turned out to be 100%. Moreover, in [1] (read-out: Test B disease control rating, 40 ppm (*)), the pest or weed control at 40 ppm amounted to 100%. For the same compound, the pest or weed control at 40 ppm in the data set with Plasmopara viticola (40 ppm (*)) was found to be 47%. In the data set on Botrytis cinerea, the pest or weed control at 40 ppm was determined as 100%. Besides, in the data set with fusarium graminearium (read-out: Test I disease control rating, 40 ppm (*)), the pest or weed control at 40 ppm worked out at 0%. Further, in the data set on Septoria tritici (40 ppm (*)), the pest or weed control at 40 ppm was 100%. Also, in the data set with Phytophthora infestans, the pest or weed control at 40 ppm was 0%. Moreover, in the data set with Sclerotinia sclerotiorum (read-out: Test C disease control rating, 40 ppm (*)), the pest or weed control at 40 ppm amounted to 99%. In addition, the pest or weed control at 40 ppm in data set [2] (read-out: Test L disease control rating, 40 ppm (*)) is 100%. Moreover, the pest or weed control at 40 ppm in data set [3] came to 100%. In addition, the pest or weed control at 40 ppm with Pythium aphanidermatum turned out to be 0%.
As to `COc1ccc(Cn2c(-c3c(F)cccc3F)c(Cl)nc(-n3cccn3)c2=O)cc1` [Compound 271, 5-Chloro-6-(2,6-difluorophenyl)-1-[(4-methoxyphenyl)methyl]-3-(1H-pyrazol-1-yl)-2(1H)-pyrazinone], the melting point lay in the range of 235 to 236 °C. Moreover, the pest or weed control at 40 ppm in the data set with Septoria nodorum (read-out: Test H disease control rating, 40 ppm (marked *), 100 = 100% disease control, 0 = no control) was determined as 0%. Besides, the pest or weed control at 40 ppm in the data set on Rhizoctonia oryzae (read-out: Test G disease control rating, 40 ppm (marked *), 100 = 100% disease control, 0 = no control) stood at 0%. The pest or weed control at 40 ppm in data set [1] (read-out: Test B disease control rating, 40 ppm (marked *), 100 = 100% disease control, 0 = no control) was 0%. Besides, the pest or weed control at 40 ppm with Plasmopara viticola (setting [4]) amounted to 0%. The pest or weed control at 40 ppm with Botrytis cinerea was 0%. Also, the pest or weed control at 40 ppm in the data set on fusarium graminearium (read-out: Test I disease control rating, 40 ppm (marked *), 100 = 100% disease control, 0 = no control) stood at 0%. In addition, in the data set with Septoria tritici (setting [4]), the pest or weed control at 40 ppm is 0%. In addition, the pest or weed control at 40 ppm in the data set on Phytophthora infestans turned out to be 0%. In the data set with Sclerotinia sclerotiorum (read-out: Test C disease control rating, 40 ppm (marked *), 100 = 100% disease control, 0 = no control), the pest or weed control at 40 ppm is 0%. Further, in [2] (read-out: Test L disease control rating, 40 ppm (marked *), 100 = 100% disease control, 0 = no control), the pest or weed control at 40 ppm stood at 0%. For the same compound, in [3], the pest or weed control at 40 ppm was 32%. For the same compound, in the data set on Pythium aphanidermatum, the pest or weed control at 40 ppm turned out to be 0%.
